Results: publication PMC3100226 (Journal of Pain Research, 2011)
pIC50: −log10 of the molar value.

Assays:
[1] = molecular target: inducible NO synthase (iNOS) (Homo sapiens, UniProt P35228); assay: Enzyme characterization panel: iNOS; assay type: biochemical; details: data not shown
[2] = tested on: STZ-induced diabetic pain in rats; assay: Streptozotocin-induced neuropathic; assay type: in vivo; details: rat, 60 mg/kg oral
D1 = D1 (Rattus norvegicus, UniProt P18901); assay: Receptor characterization panel: D1 binding; details: read-out: 10 μM CR4056 (% effect), inhibition of specific binding
[3] = tested on: neuromuscular coordination of rats; assay: Rotarod test; assay type: in vivo; details: rat; oral 3–30 mg/kg
Sigma (σ1 + σ2) = assay: Receptor characterization panel: sigma binding; details: [3H]DTG, whole brain/rat
MAO-B = molecular target: T1, MAO-B (Rattus norvegicus, UniProt P19643); assay: MAO-B binding
T1 sequence (P19643 1-520): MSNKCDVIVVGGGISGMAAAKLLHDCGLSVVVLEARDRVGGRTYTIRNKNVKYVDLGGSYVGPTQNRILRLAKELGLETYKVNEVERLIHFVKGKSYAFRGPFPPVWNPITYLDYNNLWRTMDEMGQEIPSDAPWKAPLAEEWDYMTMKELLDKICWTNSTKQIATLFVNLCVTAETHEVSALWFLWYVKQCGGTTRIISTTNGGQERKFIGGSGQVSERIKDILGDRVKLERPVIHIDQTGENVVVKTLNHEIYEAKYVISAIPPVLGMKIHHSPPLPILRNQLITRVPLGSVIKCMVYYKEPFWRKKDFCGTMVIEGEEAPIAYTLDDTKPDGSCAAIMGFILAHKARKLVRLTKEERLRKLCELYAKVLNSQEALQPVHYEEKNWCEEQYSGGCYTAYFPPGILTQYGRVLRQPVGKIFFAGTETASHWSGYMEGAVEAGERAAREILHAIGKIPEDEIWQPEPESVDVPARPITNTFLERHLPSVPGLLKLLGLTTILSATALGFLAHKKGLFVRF

human recombinant MAO-B = molecular target: T2, human recombinant MAO-B (Homo sapiens, UniProt P27338); assay: Human recombinant MAO-B functional assay; assay type: biochemical
T2 sequence (P27338 1-520): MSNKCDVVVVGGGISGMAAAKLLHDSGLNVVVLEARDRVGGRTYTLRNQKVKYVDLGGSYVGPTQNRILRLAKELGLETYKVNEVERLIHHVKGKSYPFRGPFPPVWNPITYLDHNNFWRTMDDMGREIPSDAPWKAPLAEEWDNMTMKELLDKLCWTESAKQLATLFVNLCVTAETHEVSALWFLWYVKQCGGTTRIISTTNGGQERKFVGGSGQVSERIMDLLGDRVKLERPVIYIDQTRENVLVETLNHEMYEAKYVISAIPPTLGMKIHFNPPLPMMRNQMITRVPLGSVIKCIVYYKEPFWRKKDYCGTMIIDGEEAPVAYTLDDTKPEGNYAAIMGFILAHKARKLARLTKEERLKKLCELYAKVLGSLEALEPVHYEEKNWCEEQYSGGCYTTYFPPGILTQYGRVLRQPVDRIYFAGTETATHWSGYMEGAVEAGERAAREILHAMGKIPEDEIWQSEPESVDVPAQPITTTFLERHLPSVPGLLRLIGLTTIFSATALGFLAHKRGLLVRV

TNF-α converting enzyme = TNF-α converting enzyme (Homo sapiens, UniProt P78536); assay: Enzyme characterization panel: TNF-α converting enzyme; assay type: biochemical; details: data not shown
[4] = molecular target: catechol-O-methyl transferase (COMT) (Homo sapiens, UniProt P21964); assay: Enzyme characterization panel: COMT; assay type: biochemical; details: data not shown
catechol-O-methyl transferase (COMT), sequence (P21964 whole entry, species assumed): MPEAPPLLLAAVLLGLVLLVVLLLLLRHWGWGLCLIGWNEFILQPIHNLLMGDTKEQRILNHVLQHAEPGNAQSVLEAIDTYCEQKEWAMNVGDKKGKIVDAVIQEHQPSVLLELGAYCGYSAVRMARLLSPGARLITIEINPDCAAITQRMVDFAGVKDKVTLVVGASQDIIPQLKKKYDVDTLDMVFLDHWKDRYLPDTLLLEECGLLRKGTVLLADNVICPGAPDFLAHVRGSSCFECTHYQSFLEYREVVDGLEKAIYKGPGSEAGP

TNF-α converting enzyme, sequence (P78536 215-824, species assumed): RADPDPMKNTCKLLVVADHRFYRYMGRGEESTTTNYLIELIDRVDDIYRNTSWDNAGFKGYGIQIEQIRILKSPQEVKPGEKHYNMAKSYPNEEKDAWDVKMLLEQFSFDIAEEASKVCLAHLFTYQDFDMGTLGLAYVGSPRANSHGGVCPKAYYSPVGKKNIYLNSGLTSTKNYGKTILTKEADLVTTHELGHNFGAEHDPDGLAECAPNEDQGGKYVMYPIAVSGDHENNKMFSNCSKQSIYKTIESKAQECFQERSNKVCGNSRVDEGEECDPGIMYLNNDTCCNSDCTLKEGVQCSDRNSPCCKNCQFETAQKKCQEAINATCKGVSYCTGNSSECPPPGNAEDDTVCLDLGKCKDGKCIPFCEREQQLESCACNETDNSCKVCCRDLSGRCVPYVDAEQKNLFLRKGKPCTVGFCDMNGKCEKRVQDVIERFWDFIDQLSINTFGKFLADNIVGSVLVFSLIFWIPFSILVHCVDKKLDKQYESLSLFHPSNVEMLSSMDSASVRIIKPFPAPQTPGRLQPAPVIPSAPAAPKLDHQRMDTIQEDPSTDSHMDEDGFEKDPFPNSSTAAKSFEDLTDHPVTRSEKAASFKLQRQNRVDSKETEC
D1, sequence (P18901 whole entry): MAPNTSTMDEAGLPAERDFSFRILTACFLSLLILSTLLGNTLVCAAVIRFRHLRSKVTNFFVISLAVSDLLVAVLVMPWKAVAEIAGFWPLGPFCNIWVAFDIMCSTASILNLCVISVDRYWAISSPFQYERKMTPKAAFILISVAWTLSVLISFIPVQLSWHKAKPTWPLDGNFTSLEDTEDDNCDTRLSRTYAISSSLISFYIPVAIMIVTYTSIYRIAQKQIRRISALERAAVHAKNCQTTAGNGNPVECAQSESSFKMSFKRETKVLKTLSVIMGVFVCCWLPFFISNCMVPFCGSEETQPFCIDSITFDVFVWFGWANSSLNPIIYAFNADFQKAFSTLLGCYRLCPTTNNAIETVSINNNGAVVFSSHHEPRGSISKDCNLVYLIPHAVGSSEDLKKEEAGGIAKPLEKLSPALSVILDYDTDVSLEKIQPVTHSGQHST
inducible NO synthase (iNOS), sequence (P35228 whole entry, species assumed): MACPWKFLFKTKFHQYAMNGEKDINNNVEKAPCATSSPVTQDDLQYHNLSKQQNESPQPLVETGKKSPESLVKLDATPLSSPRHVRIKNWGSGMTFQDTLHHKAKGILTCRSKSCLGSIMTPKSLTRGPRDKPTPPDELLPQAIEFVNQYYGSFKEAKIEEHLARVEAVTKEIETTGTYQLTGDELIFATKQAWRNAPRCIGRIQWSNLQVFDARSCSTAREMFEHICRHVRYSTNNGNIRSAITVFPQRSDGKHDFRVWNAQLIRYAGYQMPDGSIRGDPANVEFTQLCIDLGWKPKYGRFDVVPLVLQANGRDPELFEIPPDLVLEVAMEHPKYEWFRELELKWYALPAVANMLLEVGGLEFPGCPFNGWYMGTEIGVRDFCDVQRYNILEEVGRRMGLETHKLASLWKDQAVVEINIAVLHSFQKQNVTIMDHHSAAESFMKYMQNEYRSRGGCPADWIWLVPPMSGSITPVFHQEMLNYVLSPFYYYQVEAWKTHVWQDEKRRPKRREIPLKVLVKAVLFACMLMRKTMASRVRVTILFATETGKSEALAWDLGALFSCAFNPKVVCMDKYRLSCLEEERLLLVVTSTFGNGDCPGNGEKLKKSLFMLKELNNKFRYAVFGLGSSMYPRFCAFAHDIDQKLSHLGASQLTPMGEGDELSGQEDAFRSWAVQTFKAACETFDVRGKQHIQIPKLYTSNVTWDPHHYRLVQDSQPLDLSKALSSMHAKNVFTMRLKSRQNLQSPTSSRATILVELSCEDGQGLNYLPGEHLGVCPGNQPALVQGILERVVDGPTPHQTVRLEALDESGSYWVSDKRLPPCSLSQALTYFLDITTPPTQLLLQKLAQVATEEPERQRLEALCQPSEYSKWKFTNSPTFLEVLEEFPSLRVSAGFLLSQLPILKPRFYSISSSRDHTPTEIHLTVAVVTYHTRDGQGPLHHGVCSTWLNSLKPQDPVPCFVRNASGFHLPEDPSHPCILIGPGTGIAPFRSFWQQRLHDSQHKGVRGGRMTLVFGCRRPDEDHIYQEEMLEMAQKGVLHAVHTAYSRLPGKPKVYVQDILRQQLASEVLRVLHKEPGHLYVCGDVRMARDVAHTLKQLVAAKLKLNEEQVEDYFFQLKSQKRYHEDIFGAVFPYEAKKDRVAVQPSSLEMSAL

c1ccc(-c2ncc3cc(-n4ccnc4)ccc3n2)cc1 [CR4056, 2-phenyl-6-(1H-imidazol-1yl)quinazoline]
Activity in enzyme characterization panel [1]: inactive | Decrease of total STZ-induced hyperalgesic effect, AUC analysis (0–6 hours) [2]: 84% | Reduction of mechanical hyperalgesia at 6 hours post-dosing [2]: 58% | Reversal of STZ-induced mechanical hyperalgesia ([2]; within 30 minutes): completely reversed | inhibition at 10 µM (D1): 19% | Performance in rotarod test [3]: did not cause a deterioration | 10 μM CR4056 (% effect), inhibition of specific binding (Sigma (σ1 + σ2)): 18% | Concentrations for inhibition of MAO-B specific binding relative to MAO-A (MAO-B; rat cerebral membranes, [3H]Ro 19-6327 15 nM): two orders of magnitude higher | inhibition at 10 µM (MAO-B; read-out: 10 μM CR4056 (% effect), inhibition of specific binding): 35% | pIC50 (human recombinant MAO-B): < 5.00 | Times less active as inhibitor of MAO-B activity than of MAO-A (human recombinant MAO-B; human recombinant enzymes): about 100 times | Activity in enzyme characterization panel (TNF-α converting enzyme): inactive | Activity in enzyme characterization panel [4]: inactive
